Where two headings read alike, the source gives them in different places. One block for each compound: values may come before it. Peptide text beside a SMILES is read from it. * marks the point of attachment. pNA = O=[N+]([O-])c1ccc(N*)cc1; Cbz = O=C(OCc1ccccc1)*; Boc = CC(C)(C)OC(=O)*
Legend:
peptide amidase [1] = assay: Enzymatic cleavage of N-terminal protected dipeptide amides; assay type: biochemical, orange
From the text: The results in Table 7 were obtained using an eluent: TBA/acetonitrile 60/40 (% volume)

[2] = tested on: peptide amidase from orange flavedo; assay: Cleavage of amides of amino acids (TLC); assay type: biochemical; design: scale not given here; conditions: 50 μg/ml; 10 mM substrate; 24 h; 0.05M KPi, pH 7.5; * = slight traces
Procedure: A DEAE-purified enzyme was employed in these experiments (volumetric activity: 40 U/ml for the substrate For-Tyr-Arg-NH2).
from orange flavedo. (50 μg/ml; 10 mM substrate)
Eluent: pyridine/butanol/AcOH/H2 O (12:15:3:5).
Reaction: 24 h, RT; 0.05M KPi, pH 7.5., 30° C.
Blank sample without enzyme.

peptide amidase [3] = assay: Effect of chelating agents, metal cations and enzyme inhibitors on peptide amidase activity; assay type: biochemical, navel oranges
Procedure: The effect of the following inhibitors on peptide amidase activity was determined under standard conditions according to the methods described in Example 1. The inhibitor concentration was 10 mM in each case.

peptide amidase [4] = assay: Enzymatic reaction of peptide amides with a chain length of greater than three amino acids; assay type: biochemical, orange
Procedure: Enzymatic reaction of peptide amides with a chain length of greater than
three amino acids. Reaction conditions: 10 mM substrate, 40 μg/ml
50 mM tris/HCL, pH 7.0, temp. 30° C.

peptide amidase [5] = assay: Deamidation of N-terminal protected amino acid amides; assay type: biochemical, orange; conditions: for Spec. Activity / Yield: 10 mM substrate, 50 μg.ml peptide amidase, pH 7.0, 30° C.; for Spec. Activity: 50 mM tris/HCl
Procedure: Separating conditions according to Example 3A were employed.
Eluent: TBA/acetonitrile 65:35 (90:10 for Bz-Arg-NH2)
Reaction conditions: 10 mM substrate; 50 μg.ml peptide amidase; 50 mM
tris/HCl; pH 7.0; Temperature 30° C.

peptide amidase [6] = assay: Effect of the acetone concentration on kinetic parameters Km and Vmax; assay type: biochemical, orange
Procedure: Substrate: Z--Gly--Tyr--NH2; 40 μg/ml peptide amidase in 50 mM

peptide amidase [7] = tested on: peptide amidase
Procedure: A reaction mixture comprising the following constituents was employed:
850 μl of the particular solvent/tris (50 mM; pH 7.5) mixture
100 μl of substrate (10 mM Z-Gly-Tyr-NH2)
50 μl of amidase (40 μg of protein)
The reaction was initiated by the addition of the enzyme to prevent inactivation of the enzyme prior to the reaction.

[8] = enzymatic cleavage of the C-terminal amide
[9] = inhibitor 0.01 m (10 mM), standard conditions of Example 1
[10] = peptide amidase, 6 h, 10000 µM, pH 7
[11] = peptide amidase, pH 7, 10000 µM
[12] = 89.1% solvent, substrate Z-Gly-Tyr-NH2
[13] = 10 mM substrate, 40 μg/ml peptide amidase, 50 mM tris/HCL, pH 7.0, 30° C., 360 min

Reaction [2]: 0
Compound: C[C@@H](O)[C@H](N)C(N)=O [Thr--NH2]

Reaction [2]: 0
Compound: NC(=O)[C@@H](N)Cc1ccc(O)cc1 [Tyr--NH2]

Reaction [2]: 0
Compound: NC(=O)[C@@H](N)CO [Ser--NH2]

Yield (peptide amidase [1]; peptide amidase): 100%
Compound: NC(=O)[C@H](Cc1ccccc1)NC(=O)CNC(=O)OCc1ccccc1 [Z--Gly--Phe--NH2] (Cbz-Gly-Phe-NH2)

Reaction [2]: 0
Compound: CC(C)C[C@H](N)C(N)=O [Leu--NH2]

Spec. Activity (peptide amidase [5]): 6.34 U/mg
Yield (peptide amidase [5]; 28 min): 88.7 %/28 min
Yield (peptide amidase [5]; 120 min): 100 %/2 h
yield after 15 minutes (peptide amidase [5]; [11]): 47.6%
Yield (peptide amidase [1]; [8]): 100%
Compound: NC(=O)[C@H](Cc1ccc(O)cc1)NC(=O)c1ccccc1 [Bz--Tyr--NH2]

Reaction [2]: 0
Compound: C[C@@H](N)C(N)=O [D-Ala--NH2]

Reaction [2]: 0
Compound: NC(=O)[C@@H](N)Cc1ccccc1 [Phe--NH2]

Yield (peptide amidase [4]; [10]): 100 %/6 h
Compound: N=C(N)NCCC[C@H](NC(=O)[C@@H]1CCCN1C(=O)OCc1ccccc1)C(=O)NCC(N)=O [Z--Pro--Arg--Gly--NH2] (Cbz-Pro-Arg-Gly-NH2)

Spec. Activity (peptide amidase [5]): 2.32 U/mg
Yield (peptide amidase [5]; 28 min): 32.4 %/28 min
Yield (peptide amidase [5]; 120 min): 100 %/2 h
Yield after 45 min (peptide amidase [5]; [11]): 48.9%
Compound: CC(=O)N[C@@H](Cc1c[nH]c2ccccc12)C(N)=O [Ac--Trp--NH2]

Reaction [2]: 0
Compound: C[C@H](N)C(N)=O [Ala--NH2]

Yield (peptide amidase [1]; peptide amidase): 100%
Compound: NC(=O)[C@H](Cc1ccccc1)NC(=O)[C@@H]1CCCN1C(=O)OCc1ccccc1 [Z--Pro--Phe--NH2] (Cbz-Pro-Phe-NH2)

Yield (peptide amidase [1]; peptide amidase): 100%
Compound: N=C(N)NCCC[C@H](NC(=O)[C@H](Cc1ccc(O)cc1)NC=O)C(N)=O [For--Tyr--Arg--NH2]

Yield (peptide amidase [1]; peptide amidase): 100%
Vmax (peptide amidase [6]; 5% acetone): 2.93 U/mg
Km (peptide amidase [6]; 5% acetone, 40 μg/ml peptide amidase, pH 7.5): 0.063 mM
Km (peptide amidase [6]; 20% acetone): 1.6 mM
Vmax (peptide amidase [6]; 20% acetone): 2.54 U/mg
Km (peptide amidase [6]; 40% acetone): 5.5 mM
Vmax (peptide amidase [6]; 40% acetone): 2.57 U/mg
Km (peptide amidase [6]; 60% acetone): 19.6 mM
Vmax (peptide amidase [6]; 60% acetone): 2.58 U/mg
Compound: NC(=O)[C@H](Cc1ccc(O)cc1)NC(=O)CNC(=O)OCc1ccccc1 [Z--Gly--Tyr--NH2, benzyloxycarbonyl-glycyltyrosinamide] (Cbz-Gly-Tyr-NH2)

Activity (peptide amidase [7]; 5.0% solvent): 1.269 U/mg
Activity (peptide amidase [7]; 18.0% solvent): 0.938 U/mg
Activity (peptide amidase [7]; 27.0% solvent): 0.814 U/mg
Activity (peptide amidase [7]; 36.0% solvent): 0.613 U/mg
Activity (peptide amidase [7]; 45.0% solvent): 0.448 U/mg
Activity (peptide amidase [7]; 54.0% solvent): 0.284 U/mg
Activity (peptide amidase [7]; 63.0% solvent): 0.204 U/mg
Activity (peptide amidase [7]; 72.0% solvent): 0.149 U/mg
Activity (peptide amidase [7]; [12]): 0.083 U/mg
Compound: CCO [Ethanol]

Reaction [2]: 0
Compound: CC(C)C[C@@H](N)C(N)=O [D-Leu--NH2]

Reaction [2]: 0
Compound: NC(=O)[C@@H](N)Cc1cnc[nH]1 [His--NH2]

The remaining lines, values behind:

Compound: Bz--Tyr--Thr--NH2
Yield (peptide amidase [1]; [8]): 63%

Compound: NCCCC[C@H](N)C(N)=O [Lys--NH2]
Reaction [2]: 0

Compound: C[C@@H]1C[C@@H]([C@H](O)CC2CC(=O)NC(=O)C2)C(=O)[C@@H](C)C1 [Cycloheximide]
% activity remaining (peptide amidase [3]; [9]): 98%

Compound: Bz--Tyr--Ile--NH2
Yield (peptide amidase [1]; [8]): 100%

Compound: CC(C)[C@H](NC(=O)OCc1ccccc1)C(=O)NCC(=O)N[C@@H](C)C(=O)N1CCC[C@H]1C(N)=O [Z--Val--Gly--Ala--Pro--NH2] (Cbz-VGAP-NH2)
Yield (peptide amidase [4]; [10]): 0 %/6 h

Compound: Bz--Tyr--Trp--NH2
Yield (peptide amidase [1]; [8]): 39%

Compound: CCN1C(=O)C=CC1=O [EMI, ethylmaleimide]
% activity remaining (peptide amidase [3]; [9]): 100%

Compound: CC(C)C[C@H](NC(=O)CNC(c1ccccc1)(c1ccccc1)c1ccccc1)C(=O)N[C@H](C(N)=O)C(C)C [Trt--Gly--Leu--Val--NH2]
Yield (peptide amidase [1]; peptide amidase): 95%
Yield (peptide amidase [4]; [10]): 100 %/6 h

Compound: N=C(N)NCCC[C@H](NC(=O)c1ccccc1)C(N)=O [Bz--Arg--NH2]
Spec. Activity (peptide amidase [5]): 4.39 U/mg
Yield (peptide amidase [5]; 28 min): 61.6 %/28 min
Yield (peptide amidase [5]; 120 min): 100 %/2 h
Yield after 45 min (peptide amidase [5]; [11]): 73.5%
variation of Km and Vmax with solvent concentration (in words) (peptide amidase [6]): did not vary significantly

Compound: CCCO [Propanol]
Activity (peptide amidase [7]; 5.0% solvent): 0.927 U/mg
Activity (peptide amidase [7]; 18.0% solvent): 0.772 U/mg
Activity (peptide amidase [7]; 27.0% solvent): 0.474 U/mg
Activity (peptide amidase [7]; 36.0% solvent): 0.342 U/mg
Activity (peptide amidase [7]; 45.0% solvent): 0.12 U/mg
Activity (peptide amidase [7]; 54.0% solvent): 0.1 U/mg
Activity (peptide amidase [7]; 63.0% solvent): 0.1 U/mg
Activity (peptide amidase [7]; 72.0% solvent): 0.1 U/mg
Activity (peptide amidase [7]; [12]): 0.05 U/mg

Compound: NC(=O)[C@H](N)Cc1ccccc1 [D-Phe--NH2]
Reaction [2]: 0

Compound: CC(C)C[C@H](NC(=O)[C@H](Cc1ccccc1)NC(=O)CNC(=O)CNC(=O)[C@@H](N)Cc1ccc(O)cc1)C(N)=O [H--Tyr--Gly--Gly--Phe--Leu--NH2, Leu-Enkephalin]
Yield (peptide amidase [4]; [13]): 100 %/6 h

Compound: Bz--Tyr--Lys--NH2
Yield (peptide amidase [1]; [8]): 100%

Compound: NCC(=O)O [Glycine]
% activity remaining (peptide amidase [3]): 99%

Compound: NC(=O)[C@H](Cc1c[nH]c2ccccc12)NC(=O)OCc1ccccc1 [Z--Trp--NH2]
Spec. Activity (peptide amidase [5]): 0.37 U/mg
Yield (peptide amidase [5]; 28 min): 5.16 %/28 min
Yield (peptide amidase [5]; 120 min): 23.5 %/2 h
Yield after 45 min (peptide amidase [5]; [11]): 14.9%

Compound: Bz--Tyr--Ala--NH2
Yield (peptide amidase [1]; [8]): 65%

Compound: O=C(O)c1cc[c]([Hg][OH])cc1 [p-OHMBA, parahydroxymercuribenzoate]
% activity remaining (peptide amidase [3]; [9]): 96%

Compound: N=C(N)NCCC[C@H](N)C(N)=O [Arg--NH2]
Reaction [2]: 0

Compound: [Cl][Hg][Cl] [HgCl2]
% activity remaining (peptide amidase [3]; [9]): 95%

Compound: NC(=O)CI [Iodoacetamide]
% activity remaining (peptide amidase [3]; [9]): 99%

Compound: Mal--Tyr--Arg--NH2
Yield (peptide amidase [1]; [8]): 100%

Compound: O[C@H](CS)[C@H](O)CS (racemic) [Dithiothreitol]
% activity remaining (peptide amidase [3]; [9]): 100%

Compound: CC(C)[C@H](N)C(N)=O [Val--NH2]
Reaction [2]: 0

Compound: CSCC[C@H](N)C(N)=O [Met--NH2]
Reaction [2]: 0

Compound: Bz--Tyr--Ser--NH2
Yield (peptide amidase [1]; [8]): 41%

Compound: N=C(N)NCCC[C@H](NC(=O)[C@@H]1CCCN1)C(=O)NCC(N)=O [H--Pro--Arg--Gly--NH2] (H-Pro-Arg-Gly-NH2)
Yield (peptide amidase [4]; [10]): 100 %/6 h

Compound: N[C@@H]1CON=C1O [Cycloserine]
% activity remaining (peptide amidase [3]; [9]): 100%

Compound: [N-]=[N+]=[N-].[Na+] [NaN3]
% activity remaining (peptide amidase [3]; [9]): 100%

Compound: Bz--Tyr--Leu--NH2
Yield (peptide amidase [1]; [8]): 100%

Compound: CC(C)C[C@H](NC(=O)OC(C)(C)C)C(=O)N[C@H](C(N)=O)C(C)C [Boc--Leu--Val--NH2] (Boc-Leu-Val-NH2)
Yield (peptide amidase [1]; peptide amidase): 20%

Compound: NNC(N)=O [Semicarbazide]
% activity remaining (peptide amidase [3]; [9]): 102%

Compound: NC(=O)[C@@H](N)Cc1c[nH]c2ccccc12 [Trp--NH2]
Reaction [2]: 0

Compound: CC[C@H](C)[C@H](N)C(N)=O [Ile--NH2]
Reaction [2]: 0

Compound: Boc--cys(bzl)--Pro--Arg--Gly--NH2
Yield (peptide amidase [4]; [13]): 90 %/6 h

Compound: N=C(N)NCCC[C@H](NC(=O)OCc1ccccc1)C(=O)N[C@@H](CCCNC(=N)N)C(=O)Nc1ccc([N+](=O)[O-])cc1 [Z--Arg--Arg--pNa, reference compound] (Cbz-Arg-Arg-pNA)
reaction (in words) (peptide amidase [1]; comparison, 12 h): No reaction in 12 h

Compound: CC(C)=O [Acetone]
Activity (peptide amidase [7]; 5.0% solvent): 2.011 U/mg
Activity (peptide amidase [7]; 18.0% solvent): 1.863 U/mg
Activity (peptide amidase [7]; 27.0% solvent): 1.748 U/mg
Activity (peptide amidase [7]; 36.0% solvent): 1.527 U/mg
Activity (peptide amidase [7]; 45.0% solvent): 1.38 U/mg
Activity (peptide amidase [7]; 72.0% solvent): 0.585 U/mg
Activity (peptide amidase [7]; [12]): 0.224 U/mg

Compound: Bz--Tyr--Val--NH2
Yield (peptide amidase [1]; [8]): 100%

Compound: O=C(O)CN(CCN(CC(=O)O)CC(=O)O)CC(=O)O [EDTA, ethylenedinitrilotetraacetic acid]
% activity remaining (peptide amidase [3]): 92%

Compound: O=S(=O)(F)Cc1ccccc1 [PMSF, phenylmethanesulfonyl fluoride]
inhibition of peptide amidase (in words) (peptide amidase [3]): significantly inhibited
% activity remaining (peptide amidase [3]; [9]): 55%
inhibition of peptide amidase (in words) (peptide amidase [3]; listed as phenylmethanesulfonyl fluoride): weak inhibition

Compound: Luteinizing Hormone Releasing Factor [LHRH]
Yield (peptide amidase [4]; [13]): 90 %/6 h

— patent US5369016A, “Peptide amidase and the use thereof” (Forschungszentrum Juelich GmbH, priority 1990, dated 1994)
